In ChEMBL document CHEMBL1201862, “PubChem BioAssay data set” (2004):
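Five compound concentrations were applied to cells in 96-well plates for 48 hours; endpoints were derived by simple linear interpolation of the resulting dose-response curve. Here, GI50 denotes the concentration required for 50% inhibition of growth.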 Active and inactive are the calls of the source. Cut-off read from the data, not from the text of the source: active = GI50 up to about 1.1 µM and inactive = higher.

What was measured:
Assay in all cases: growth of human tumour cells (NCI), 48 h
HCT-116 = tested on: HCT-116
T47D = tested on: T47D
HCT-15 = tested on: HCT-15
SK-MEL-2 = tested on: SK-MEL-2
SR = tested on: SR
SF-268 = tested on: SF-268
SN12C = tested on: SN12C
SK-MEL-5 = tested on: SK-MEL-5
KM12 = tested on: KM12
RPMI-8226 = tested on: RPMI-8226
MDA-N = tested on: MDA-N
SW-620 = tested on: SW-620
SNB-19 = tested on: SNB-19
SNB-75 = tested on: SNB-75
NCI-H460 = tested on: NCI-H460
MDA-MB-435 = tested on: MDA-MB-435
K562 = tested on: K562
TK-10 = tested on: TK-10
DU-145 = tested on: DU-145
HOP-92 = tested on: HOP-92
OVCAR-5 = tested on: OVCAR-5
M14 = tested on: M14
NCI-H522 = tested on: NCI-H522
CAKI-1 = tested on: CAKI-1
OVCAR-8 = tested on: OVCAR-8
SF-295 = tested on: SF-295
Hs-578T = tested on: Hs-578T
MDA-MB-231 = tested on: MDA-MB-231
A549 = tested on: A549
UO-31 = tested on: UO-31
NCI/ADR-RES = tested on: NCI/ADR-RES
COLO 205 = tested on: COLO 205
A498 = tested on: A498
HL-60 = tested on: HL-60
CCRF-CEM = tested on: CCRF-CEM
U-251 = tested on: U-251
UACC-257 = tested on: UACC-257
OVCAR-3 = tested on: OVCAR-3
HCC 2998 = tested on: HCC 2998
PC-3 = tested on: PC-3
BT-549 = tested on: BT-549
LOX IMVI = tested on: LOX IMVI
NCI-H23 = tested on: NCI-H23
OVCAR-4 = tested on: OVCAR-4
786-0 = tested on: 786-0
EKVX = tested on: EKVX
ACHN = tested on: ACHN
NCI-H226 = tested on: NCI-H226
Malme-3M = tested on: Malme-3M
SK-MEL-28 = tested on: SK-MEL-28
RXF 393 = tested on: RXF 393
SK-OV-3 = tested on: SK-OV-3
IGROV-1 = tested on: IGROV-1
HOP-62 = tested on: HOP-62
UACC-62 = tested on: UACC-62
MCF7 = tested on: MCF7
HT-29 = tested on: HT-29
SF-539 = tested on: SF-539
MOLT-4 = tested on: MOLT-4

`CC(C)C(=O)C(C)(C)CCc1ccccn1` was tested, and the GI50 (HCT-116) was > 100 µM (inactive), the GI50 (T47D) was > 100 µM (inactive) and the GI50 (HCT-15) was greater than 100 µM. For the same compound, the GI50 (SK-MEL-2) was > 100 µM (inactive), the GI50 (SR) was > 100 µM (inactive) and the GI50 (SF-268) was > 100 µM (inactive). The GI50 (SN12C) was > 100 µM (inactive), the GI50 (SK-MEL-5) was > 100 µM (inactive) and the GI50 (KM12) was > 100 µM (inactive). For the same compound, the GI50 (RPMI-8226) was > 100 µM (inactive), the GI50 (MDA-N) was > 100 µM (inactive) and the GI50 (SW-620) was > 100 µM (inactive). For the same compound, the GI50 (SNB-19) was > 100 µM (inactive), the GI50 (SNB-75) was > 100 µM (inactive) and the GI50 (NCI-H460) was > 100 µM (inactive). The GI50 (MDA-MB-435) was > 100 µM (inactive), the GI50 (K562) was > 100 µM (inactive) and the GI50 (TK-10) was > 100 µM (inactive). For the same compound, the GI50 (DU-145) was > 100 µM (inactive), the GI50 (HOP-92) was > 100 µM (inactive) and the GI50 (OVCAR-5) was > 100 µM (inactive). The GI50 (M14) was > 100 µM (inactive), the GI50 (NCI-H522) was > 100 µM (inactive) and the GI50 (CAKI-1) was > 100 µM (inactive). For the same compound, the GI50 (OVCAR-8) was > 100 µM (inactive), the GI50 (SF-295) was > 100 µM (inactive) and the GI50 (Hs-578T) was > 100 µM (inactive). The GI50 (MDA-MB-231) was > 100 µM (inactive), the GI50 (A549) was > 100 µM (inactive) and the GI50 (UO-31) was > 100 µM (inactive). The GI50 (NCI/ADR-RES) was > 100 µM (inactive), the GI50 (COLO 205) was > 100 µM (inactive) and the GI50 (A498) was > 100 µM (inactive). For the same compound, the GI50 (HL-60) was > 100 µM (inactive), the GI50 (CCRF-CEM) was > 100 µM (inactive) and the GI50 (U-251) was > 100 µM (inactive). The GI50 (UACC-257) was > 100 µM (inactive), the GI50 (OVCAR-3) was > 100 µM (inactive) and the GI50 (HCC 2998) was > 100 µM (inactive). For the same compound, the GI50 (PC-3) was > 100 µM (inactive), the GI50 (BT-549) was > 100 µM (inactive) and the GI50 (LOX IMVI) was > 100 µM (inactive). The GI50 (NCI-H23) was > 100 µM (inactive), the GI50 (OVCAR-4) was > 100 µM (inactive) and the GI50 (786-0) was > 100 µM (inactive). The GI50 (EKVX) was > 100 µM (inactive), the GI50 (ACHN) was > 100 µM (inactive) and the GI50 (NCI-H226) was > 100 µM (inactive). For the same compound, the GI50 (Malme-3M) was > 100 µM (inactive), the GI50 (SK-MEL-28) was > 100 µM (inactive) and the GI50 (RXF 393) was > 100 µM (inactive). The GI50 (SK-OV-3) was > 100 µM (inactive), the GI50 (IGROV-1) was > 100 µM (inactive) and the GI50 (HOP-62) was > 100 µM (inactive). For the same compound, the GI50 (UACC-62) was > 100 µM (inactive), the GI50 (MCF7) was > 100 µM (inactive) and the GI50 (HT-29) was > 100 µM (inactive).

In the case of `COc1cc(CSc2ccc(O)cc2)cc(OC)c1OC`, the GI50 (HCT-116) is reported as 53 µM (inactive), the GI50 (T47D) is reported as 22.6 µM (inactive) and the GI50 (HCT-15) is reported as 25.5 µM. For the same compound, the GI50 (SK-MEL-2) was 21 µM (inactive), the GI50 (SR) was 24.1 µM (inactive) and the GI50 (SF-268) was 53.3 µM (inactive). The GI50 (SN12C) was 52.5 µM (inactive), the GI50 (SK-MEL-5) was 18 µM (inactive) and the GI50 (KM12) was 30.2 µM (inactive). For the same compound, the GI50 (RPMI-8226) was 21.3 µM (inactive), the GI50 (SF-539) was 53.3 µM (inactive) and the GI50 (MDA-N) was 30.5 µM (inactive). For the same compound, the GI50 (SW-620) was > 100 µM (inactive), the GI50 (SNB-19) was 34.6 µM (inactive) and the GI50 (SNB-75) was 23.1 µM (inactive). For the same compound, the GI50 (NCI-H460) was 37.6 µM (inactive), the GI50 (MDA-MB-435) was 27.6 µM (inactive) and the GI50 (K562) was 38 µM (inactive). For the same compound, the GI50 (TK-10) was 75.2 µM (inactive), the GI50 (DU-145) was 53.2 µM (inactive) and the GI50 (HOP-92) was 19.3 µM (inactive). For the same compound, the GI50 (OVCAR-5) was 52.1 µM (inactive), the GI50 (M14) was 36.4 µM (inactive) and the GI50 (NCI-H522) was 29.3 µM (inactive). The GI50 (CAKI-1) was 34.6 µM (inactive), the GI50 (OVCAR-8) was 33.8 µM (inactive) and the GI50 (SF-295) was 24.9 µM (inactive). The GI50 (Hs-578T) was 41.3 µM (inactive), the GI50 (MDA-MB-231) was 43.2 µM (inactive) and the GI50 (A549) was 48.4 µM (inactive). The GI50 (UO-31) was 14.5 µM (inactive), the GI50 (NCI/ADR-RES) was 24.7 µM (inactive) and the GI50 (COLO 205) was 67.8 µM (inactive). The GI50 (A498) was 93.3 µM (inactive), the GI50 (HL-60) was 20.4 µM (inactive) and the GI50 (MOLT-4) was 25.5 µM (inactive). The GI50 (CCRF-CEM) was > 10 µM (inactive), the GI50 (U-251) was 29.2 µM (inactive) and the GI50 (UACC-257) was 39 µM (inactive). For the same compound, the GI50 (OVCAR-3) was 41.6 µM (inactive), the GI50 (PC-3) was 27.4 µM (inactive) and the GI50 (BT-549) was 16.4 µM (inactive). For the same compound, the GI50 (LOX IMVI) was 59.8 µM (inactive), the GI50 (NCI-H23) was 28.6 µM (inactive) and the GI50 (786-0) was 55.3 µM (inactive). For the same compound, the GI50 (EKVX) was 39.8 µM (inactive), the GI50 (ACHN) was 31.3 µM (inactive) and the GI50 (NCI-H226) was 29 µM (inactive). The GI50 (Malme-3M) was 27.5 µM (inactive), the GI50 (SK-MEL-28) was 76.7 µM (inactive) and the GI50 (RXF 393) was > 100 µM (inactive). The GI50 (SK-OV-3) was 62.2 µM (inactive), the GI50 (IGROV-1) was 48.5 µM (inactive) and the GI50 (HOP-62) was 49.7 µM (inactive). The GI50 (UACC-62) was 27.4 µM (inactive), the GI50 (MCF7) was 4.31 µM (inactive) and the GI50 (HT-29) was 50.4 µM (inactive).

In the case of `CCN(CC)CCNc1ccc2ncn3c4c(OC)cccc4c(=O)c1c23`, the GI50 (HCT-116) is reported as 0.54 µM (active), the GI50 (T47D) is reported as 7.66 µM (inactive) and the GI50 (HCT-15) is reported as 3.85 µM. The GI50 (SR) was 3.4 µM (inactive), the GI50 (SF-268) was 3.92 µM (inactive) and the GI50 (SN12C) was 2.93 µM (inactive). For the same compound, the GI50 (SK-MEL-5) was 2.38 µM (inactive), the GI50 (KM12) was 4.26 µM (inactive) and the GI50 (SF-539) was 3.78 µM (inactive). For the same compound, the GI50 (MDA-N) was 4.27 µM (inactive), the GI50 (SW-620) was 1.08 µM (active) and the GI50 (SNB-19) was 6.15 µM (inactive). For the same compound, the GI50 (SNB-75) was 11.3 µM (inactive), the GI50 (NCI-H460) was 3 µM (inactive) and the GI50 (MDA-MB-435) was 6.58 µM (inactive). The GI50 (K562) was 2.67 µM (inactive), the GI50 (TK-10) was 12.2 µM (inactive) and the GI50 (DU-145) was 4.5 µM (inactive). The GI50 (HOP-92) was 4.27 µM (inactive), the GI50 (M14) was 6.34 µM (inactive) and the GI50 (NCI-H522) was 4.4 µM (inactive). The GI50 (CAKI-1) was 4.89 µM (inactive), the GI50 (OVCAR-8) was 6.38 µM (inactive) and the GI50 (SF-295) was 10.4 µM (inactive). The GI50 (Hs-578T) was 11.6 µM (inactive), the GI50 (MDA-MB-231) was 7.55 µM (inactive) and the GI50 (A549) was 4.12 µM (inactive). For the same compound, the GI50 (UO-31) was 4.38 µM (inactive), the GI50 (NCI/ADR-RES) was 1.79 µM (inactive) and the GI50 (COLO 205) was 1.91 µM (inactive). The GI50 (A498) was 13.9 µM (inactive), the GI50 (MOLT-4) was 0.912 µM (active) and the GI50 (CCRF-CEM) was 1.73 µM (inactive). The GI50 (U-251) was 4.89 µM (inactive), the GI50 (UACC-257) was 21.1 µM (inactive) and the GI50 (OVCAR-3) was 0.863 µM (active). For the same compound, the GI50 (HCC 2998) was 4.94 µM (inactive), the GI50 (PC-3) was 3.97 µM (inactive) and the GI50 (BT-549) was > 10 µM (inactive). The GI50 (NCI-H23) was 5.46 µM (inactive), the GI50 (OVCAR-4) was 2.93 µM (inactive) and the GI50 (786-0) was 4.83 µM (inactive). For the same compound, the GI50 (EKVX) was 4.15 µM (inactive), the GI50 (ACHN) was 3.38 µM (inactive) and the GI50 (NCI-H226) was 5.86 µM (inactive). For the same compound, the GI50 (Malme-3M) was 6.76 µM (inactive), the GI50 (SK-MEL-28) was 6.47 µM (inactive) and the GI50 (RXF 393) was 2.45 µM (inactive). For the same compound, the GI50 (SK-OV-3) was 10.9 µM (inactive), the GI50 (IGROV-1) was 5.41 µM (inactive) and the GI50 (HOP-62) was 6.67 µM (inactive). The GI50 (UACC-62) was 6.68 µM (inactive), the GI50 (MCF7) was 2.47 µM (inactive) and the GI50 (HT-29) was 4.04 µM (inactive).
